# Patent US20190209650A1, “METHOD TO IMPROVE THE EFFECTIVENESS OF ANTI-CANCER THERAPIES BY EXPOSING CANCER CELLS TO AN INFLAMMATORY STIMULUS PRIOR TO TREATMENT” (priority 2016, published 2019)
# Key:
# [1] = test system: SW620 colorectal cancer cell line; assay: Flow cytometry of EpCAM positive cells and cancer stem cell (CD44+CD133-) subpopulation after incubation with cytokines; type: cell-based, human; conditions: for % Gated, R4 (CD44FITC, CD133 PE) / % Total, R4 (CD44FITC, CD133 PE): population R4 & R14 & R2 & R1; for % Gated, R5 (CD44FITC, CD133 PE) / % Total, R5 (CD44FITC, CD133 PE): population R5 & R14 & R2 & R1; for % Gated, R6 (CD44FITC, CD133 PE) / % Total, R6 (CD44FITC, CD133 PE): population R6 & R14 & R2 & R1; for % Gated, R7 Cancer Stem Cell (CSC) (CD44+CD133-) / % Total, R7 Cancer Stem Cell (CSC) (CD44+CD133-): population R7 & R14 & R2 & R1; for % Gated, R8 (CD44FITC, EpCAMefluor710) / % Total, R8 (CD44FITC, EpCAMefluor710): population R8 & R14 & R2 & R1; for % Gated, R9 EpCAM positive Cells (CD44FITC, EpCAMefluor710) / % Total, R9 EpCAM positive Cells (CD44FITC, EpCAMefluor710): population R9 & R14 & R2 & R1; for % Gated, R10 EpCAM positive Cells (CD44FITC, EpCAMefluor710) / % Total, R10 EpCAM positive Cells (CD44FITC, EpCAMefluor710): population R10 & R14 & R2 & R1; for % Gated, R11 (CD44FITC, EpCAMefluor710) / % Total, R11 (CD44FITC, EpCAMefluor710): population R11 & R14 & R2 & R1; for putative stem cell population (CD44+/CD133-): SW620; for percentage of cancer stem cells: human cancer cell line, single agent at 1000 pg/ml
# Procedure: This number returned to near baseline 21% at 48 hours. […] This change was transient, occurring within 24 hours and rapidly returning to baseline.
# The data from the scatter plots of FIGS. 1A-1H, 2A-2H, and 3A-3H are reproduced below in Tables 1-3.
# Based on the above data of potentiating the effectiveness of chemotherapy by exposing cancer cells to specific cytokines such as HGF and or Il-6 within a time limited fashion, the mechanism behind this ability to sensitize cancer cells may not simply be triggering cellular proliferation. Specific cytokine exposures can transiently cause a cancer cell population to differentiate away from a more stem cell enriched, mesenchymal phenotype towards a more differentiated, epithelial cell population more sensitive to the effects of anti-cancer therapies (see Tables 1-3).
# In particular, exposure to a control population of SW620 colorectal cancer cell line to HGF at a concentration of 10 ng per ml for 24 hours caused the control putative stem cell population (CD44+/CD133−) to drop from 33% at baseline (see Table 1, R7 region, CD 44 positive/CD133 negative) to 1% (see Table 2, R7, region CD 44 positive/CD133 negative). This drop was transient, as exposure to the same cell line for 48 hours of HGF at 10 ng per ml transitioned the phenotypic distribution back towards a stem cell enriched phenotype with 23% putative stem cells (see Table 3, R7 region, CD 44 positive/CD133 negative).
# SW 620 cell lines = assay: Cancer stem cells remaining after cytokine exposure and 24 hours exposure to CPT-11 (Irinotecan); type: cell-based, human; conditions: FIG. 4
# Procedure: FIG. 4 depicts a table showing percentage of Cancer Stem Cells remaining after exposure to various cytokines and 24 hours exposure to CPT-11 (Irinotecan). The present inventor then performed experiments to determine if exposure to HGF would improve the effectiveness of chemotherapy treatment, based on a prediction that this stimulus, by fostering differentiation of the stem cell subpopulation, would render these cells more susceptible to chemotherapy. […] Furthermore, exposure to HGF alone for 24 hours at a concentration of 10 ng per ml followed by treatment with CPT-11 in SW 620 cell lines was able to kill cancer stem cells effectively as well, given that there were no remaining cancer stem cells after this sensitization (FIG. 4 0% CD44+/CD133−).
# PANC1 = assay: Cancer cell viability after 48 hours HGF only pretreatment followed by 72 hour combination treatment; type: cell-based, human; conditions: 48 hours HGF exposure followed by 72 hour combination treatment; FIG. 7
# Procedure: FIG. 7 depicts tables showing cancer cell viability after 48 hours of HGF only pretreatment, followed by 72 hour combination treatment. HI1=HGF 0.5 ng/ml; H12=HGF 1 ng/ml; HI3=HGF 5 ng/ml. A) PANC1 48 hour HGF exposure followed by 72 hour combination treatment (COMBO=30 paclitaxel, 250 μg/mL oseltamivir phosphate, and 2.5 mM aspirin). B) PANC1 48 hour HGF exposure followed by 72 hour combination treatment (COMBO=50 μM paclitaxel, 250 μg/mL oseltamivir phosphate, and 2.5 mM aspirin).
# (§1) In the following experiments various concentrations of hepatocyte growth factor (HGF) and Interleukin 6 (IL-6), used singly and together, were used to sensitize cancer cell lines to cytotoxic chemotherapy. In these experiments a combination anti-cancer treatment of paclitaxel with aspirin and oseltamivir phosphate (OP) were used. Cell lines treated with the combination treatment (COMBO) alone were compared with those treated with the combination treatment after exposure to cytokines.
# In FIG. 7, exposing human pancreatic cancer cell lines (PANC-1) cells to HGF for 48 hours at various concentrations sensitized cancer cells to subsequent combination treatment. […] P-value in FIG. 7 was calculated based on comparison between Combination Treatment vs. Pretreatment Followed by Combination Treatment.
# cancer cells = assay: Cancer cell viability after 72 hours HGF only pretreatment followed by 72 hour combination treatment; type: cell-based; conditions: 72 hours HGF exposure followed by 72 hour combination treatment; FIG. 8
# Procedure: FIG. 8 depicts a table showing cancer cell viability after 72 hours of HGF only pretreatment, followed by 72 hour combination treatment (COMBO=30 μM paclitaxel, 250 μs/mL oseltamivir phosphate, and 2.5 mM aspirin). HI1=HGF 0.5 ng/ml; HI2=HGF 1 ng/ml; HI3=HGF 5 ng/ml.
# as §1
# Thus, exposure to this particular cytokine, for longer than 48 hours can increase the likelihood that the cancer cell population is transitioning over to a more stem cell enriched phenotype, rendering the cells less sensitive to the effects of cytotoxic therapies. Other cytokines such as HGF, IL-6, PGE-2, MCP-1, MMP-9, TGF-beta, PDGF-BB, and PGF, the up-regulation of which is associated with stem cell enrichment should also be administered in this time limited manner to avoid a stem cell enriched phenotype that is more resistant to the chemotherapy treatment. […]
# [2] = after exposure to HGF, then chemotherapy (CPT-11)
substance,measurement,setting,value
"HGF: Hepatocyte Growth Factor, cytokine","% Gated, R4 (CD44FITC, CD133 PE)",[1]; 0 hour incubation,48.6%
same,"% Total, R4 (CD44FITC, CD133 PE)",[1]; 0 hour incubation,46.6%
same,"% Gated, R5 (CD44FITC, CD133 PE)",[1]; 0 hour incubation,3.61%
same,"% Total, R5 (CD44FITC, CD133 PE)",[1]; 0 hour incubation,3.45%
same,"% Gated, R6 (CD44FITC, CD133 PE)",[1]; 0 hour incubation,14.2%
same,"% Total, R6 (CD44FITC, CD133 PE)",[1]; 0 hour incubation,13.6%
same,"% Gated, R7 Cancer Stem Cell (CSC) (CD44+CD133-)",[1]; 0 hour incubation,33.8%
same,"% Total, R7 Cancer Stem Cell (CSC) (CD44+CD133-)",[1]; 0 hour incubation,32.3%
same,"% Gated, R8 (CD44FITC, EpCAMefluor710)",[1]; 0 hour incubation,5.28%
same,"% Total, R8 (CD44FITC, EpCAMefluor710)",[1]; 0 hour incubation,5.06%
same,"% Gated, R9 EpCAM positive Cells (CD44FITC, EpCAMefluor710)",[1]; 0 hour incubation,53.1%
same,"% Total, R9 EpCAM positive Cells (CD44FITC, EpCAMefluor710)",[1]; 0 hour incubation,50.9%
same,"% Gated, R10 EpCAM positive Cells (CD44FITC, EpCAMefluor710)",[1]; 0 hour incubation,39%
same,"% Total, R10 EpCAM positive Cells (CD44FITC, EpCAMefluor710)",[1]; 0 hour incubation,37.4%
same,"% Gated, R11 (CD44FITC, EpCAMefluor710)",[1]; 0 hour incubation,2.16%
same,"% Total, R11 (CD44FITC, EpCAMefluor710)",[1]; 0 hour incubation,2.07%
same,"% Gated, R4 (CD44FITC, CD133 PE)",[1]; 24 h incubation,98.6%
same,"% Total, R4 (CD44FITC, CD133 PE)",[1]; 24 h incubation,84.7%
same,"% Gated, R5 (CD44FITC, CD133 PE)",[1]; 24 h incubation,0%
same,"% Total, R5 (CD44FITC, CD133 PE)",[1]; 24 h incubation,0%
same,"% Gated, R6 (CD44FITC, CD133 PE)",[1]; 24 h incubation,0.07%
same,"% Total, R6 (CD44FITC, CD133 PE)",[1]; 24 h incubation,0.06%
same,"% Gated, R7 Cancer Stem Cell (CSC) (CD44+CD133-)",[1]; 24 h incubation,1.01%
same,"% Total, R7 Cancer Stem Cell (CSC) (CD44+CD133-)",[1]; 24 h incubation,0.87%
same,"% Gated, R8 (CD44FITC, EpCAMefluor710)",[1]; 24 h incubation,99.8%
same,"% Total, R8 (CD44FITC, EpCAMefluor710)",[1]; 24 h incubation,85.7%
same,"% Gated, R9 EpCAM positive Cells (CD44FITC, EpCAMefluor710)",[1]; 24 h incubation,0.02%
same,"% Total, R9 EpCAM positive Cells (CD44FITC, EpCAMefluor710)",[1]; 24 h incubation,0.02%
same,"% Gated, R10 EpCAM positive Cells (CD44FITC, EpCAMefluor710)",[1]; 24 h incubation,0.02%
same,"% Total, R10 EpCAM positive Cells (CD44FITC, EpCAMefluor710)",[1]; 24 h incubation,0.02%
same,"% Gated, R11 (CD44FITC, EpCAMefluor710)",[1]; 24 h incubation,0.2%
same,"% Total, R11 (CD44FITC, EpCAMefluor710)",[1]; 24 h incubation,0.17%
same,"% Gated, R4 (CD44FITC, CD133 PE)",[1]; 48 h incubation,38%
same,"% Total, R4 (CD44FITC, CD133 PE)",[1]; 48 h incubation,34.2%
same,"% Gated, R5 (CD44FITC, CD133 PE)",[1]; 48 h incubation,7.48%
same,"% Total, R5 (CD44FITC, CD133 PE)",[1]; 48 h incubation,6.73%
same,"% Gated, R6 (CD44FITC, CD133 PE)",[1]; 48 h incubation,31.3%
same,"% Total, R6 (CD44FITC, CD133 PE)",[1]; 48 h incubation,28.2%
same,"% Gated, R7 Cancer Stem Cell (CSC) (CD44+CD133-)",[1]; 48 h incubation,23.9%
same,"% Total, R7 Cancer Stem Cell (CSC) (CD44+CD133-)",[1]; 48 h incubation,21.5%
same,"% Gated, R8 (CD44FITC, EpCAMefluor710)",[1]; 48 h incubation,20%
same,"% Total, R8 (CD44FITC, EpCAMefluor710)",[1]; 48 h incubation,18%
same,"% Gated, R9 EpCAM positive Cells (CD44FITC, EpCAMefluor710)",[1]; 48 h incubation,34.7%
same,"% Total, R9 EpCAM positive Cells (CD44FITC, EpCAMefluor710)",[1]; 48 h incubation,31.2%
same,"% Gated, R10 EpCAM positive Cells (CD44FITC, EpCAMefluor710)",[1]; 48 h incubation,31.8%
same,"% Total, R10 EpCAM positive Cells (CD44FITC, EpCAMefluor710)",[1]; 48 h incubation,28.7%
same,"% Gated, R11 (CD44FITC, EpCAMefluor710)",[1]; 48 h incubation,14.4%
same,"% Total, R11 (CD44FITC, EpCAMefluor710)",[1]; 48 h incubation,12.9%
same,putative stem cell population (CD44+/CD133-),"[1]; 10 ng per ml for 24 hours (Table 2, R7 region)",1%
same,putative stem cell population (CD44+/CD133-),"[1]; 10 ng per ml for 48 hours (Table 3, R7 region)",23%
same,putative stem cell population (CD44+/CD133-),"[1]; at baseline (Table 1, R7 region)",33%
same,percentage of cancer stem cells,[1]; at 24 hours,less than one percent
same,percentage of cancer stem cells,[1]; at 48 hours,21%
same,percentage of cancer stem cells,[1]; prior to exposure,approximately 30%
same,remaining cancer stem cells CD44+/CD133-,"SW 620 cell lines; HGF alone 24 hours at 10 ng per ml followed by CPT-11, SW 620",0%
same,cancer stem cells killed,SW 620 cell lines; [2],100%
same,viable cancer stem cells remaining,SW 620 cell lines; [2],no viable cancer stem cells remaining
same,reduction in cell viability,PANC1,87%
same,sensitization of cancer cells to the combination treatment,cancer cells,made the combination treatment less effective
